Measured values: patent US10222368B2 (priority 2012, dated 2019)

Assays:
α7nAChR/Aβ42 complexes = assay: Protein A and Protein G capture plate assay in lymphocytes; assay type: cell-based, human; settings: 1 nM
Procedure: Each sample was assessed in duplicate.

α7nAChR-FLNA complexes = target: T1, α7nAChR-FLNA complexes (Mus musculus, UniProt Q8BTM8); assay: AD transgenic mouse oral treatment, lymphocyte anti-FLNA immunoprecipitation / Western blot; assay type: in vivo; settings: 30 mg/kg C0105 orally for 2 months; AD transgenic mice from age 4 and 8 months
T1 construct: measuring α7nAChR and TLR4 contents in anti-FLNA immunoprecipitate by Western blotting; endogenous in cells; host or cells: trunk-blood lymphocytes of E129 and tau/APP695sw/PS1 transgenic mice
Procedure: FIG. 19, in five panels as FIG. 19A and FIG. 19B, FIG. 19C, FIG. 19D and FIG. 19E, illustrate the effects of oral administration of 30 mg/kg of Compound C0105 for a period of two months to E129 mice and AD transgenic (tau/APP695sw(-9E0/PS1) mice beginning at the ages of 4 and 8 months. Mice were sacrificed, and their brains extracted/dissected to confirm pathologies. Trunk blood was collected and lymphocyte lysate preparations were analyzed for levels of α7nAChR and FLNA as well as TLR4 and FLNA by measuring α7nAChR and TLR4 contents in anti-FLNA immunoprecipitates by Western blotting and visualization with FITC. Data are expressed as the ratios of optical intensities of α7nAChR to FLNA (FIGS. 19B and 19C) and TLR4 to FLNA (FIGS. 19D and 19E). n=5. […]
To assess the C0105's AD treatment efficacy, E129 mice and AD transgenic (tau/APP695sw(-9E)/PS1) mice at age of 4-months (minimal plaque pathologies) and 8-months (established plaque pathologies) were treated orally with 30 mg/kg of C0105 for 2 months. […] The protein bands were detected using a chemiluminescent method, visualized by exposure to x-ray film and quantified by densitometric scan.
The data were expressed as the ratios of optical intensities of α7nAChR to FLNA and TLR4 to FLNA. […]

T1 sequence (Q8BTM8 2-2647 limits assumed, one chain of several): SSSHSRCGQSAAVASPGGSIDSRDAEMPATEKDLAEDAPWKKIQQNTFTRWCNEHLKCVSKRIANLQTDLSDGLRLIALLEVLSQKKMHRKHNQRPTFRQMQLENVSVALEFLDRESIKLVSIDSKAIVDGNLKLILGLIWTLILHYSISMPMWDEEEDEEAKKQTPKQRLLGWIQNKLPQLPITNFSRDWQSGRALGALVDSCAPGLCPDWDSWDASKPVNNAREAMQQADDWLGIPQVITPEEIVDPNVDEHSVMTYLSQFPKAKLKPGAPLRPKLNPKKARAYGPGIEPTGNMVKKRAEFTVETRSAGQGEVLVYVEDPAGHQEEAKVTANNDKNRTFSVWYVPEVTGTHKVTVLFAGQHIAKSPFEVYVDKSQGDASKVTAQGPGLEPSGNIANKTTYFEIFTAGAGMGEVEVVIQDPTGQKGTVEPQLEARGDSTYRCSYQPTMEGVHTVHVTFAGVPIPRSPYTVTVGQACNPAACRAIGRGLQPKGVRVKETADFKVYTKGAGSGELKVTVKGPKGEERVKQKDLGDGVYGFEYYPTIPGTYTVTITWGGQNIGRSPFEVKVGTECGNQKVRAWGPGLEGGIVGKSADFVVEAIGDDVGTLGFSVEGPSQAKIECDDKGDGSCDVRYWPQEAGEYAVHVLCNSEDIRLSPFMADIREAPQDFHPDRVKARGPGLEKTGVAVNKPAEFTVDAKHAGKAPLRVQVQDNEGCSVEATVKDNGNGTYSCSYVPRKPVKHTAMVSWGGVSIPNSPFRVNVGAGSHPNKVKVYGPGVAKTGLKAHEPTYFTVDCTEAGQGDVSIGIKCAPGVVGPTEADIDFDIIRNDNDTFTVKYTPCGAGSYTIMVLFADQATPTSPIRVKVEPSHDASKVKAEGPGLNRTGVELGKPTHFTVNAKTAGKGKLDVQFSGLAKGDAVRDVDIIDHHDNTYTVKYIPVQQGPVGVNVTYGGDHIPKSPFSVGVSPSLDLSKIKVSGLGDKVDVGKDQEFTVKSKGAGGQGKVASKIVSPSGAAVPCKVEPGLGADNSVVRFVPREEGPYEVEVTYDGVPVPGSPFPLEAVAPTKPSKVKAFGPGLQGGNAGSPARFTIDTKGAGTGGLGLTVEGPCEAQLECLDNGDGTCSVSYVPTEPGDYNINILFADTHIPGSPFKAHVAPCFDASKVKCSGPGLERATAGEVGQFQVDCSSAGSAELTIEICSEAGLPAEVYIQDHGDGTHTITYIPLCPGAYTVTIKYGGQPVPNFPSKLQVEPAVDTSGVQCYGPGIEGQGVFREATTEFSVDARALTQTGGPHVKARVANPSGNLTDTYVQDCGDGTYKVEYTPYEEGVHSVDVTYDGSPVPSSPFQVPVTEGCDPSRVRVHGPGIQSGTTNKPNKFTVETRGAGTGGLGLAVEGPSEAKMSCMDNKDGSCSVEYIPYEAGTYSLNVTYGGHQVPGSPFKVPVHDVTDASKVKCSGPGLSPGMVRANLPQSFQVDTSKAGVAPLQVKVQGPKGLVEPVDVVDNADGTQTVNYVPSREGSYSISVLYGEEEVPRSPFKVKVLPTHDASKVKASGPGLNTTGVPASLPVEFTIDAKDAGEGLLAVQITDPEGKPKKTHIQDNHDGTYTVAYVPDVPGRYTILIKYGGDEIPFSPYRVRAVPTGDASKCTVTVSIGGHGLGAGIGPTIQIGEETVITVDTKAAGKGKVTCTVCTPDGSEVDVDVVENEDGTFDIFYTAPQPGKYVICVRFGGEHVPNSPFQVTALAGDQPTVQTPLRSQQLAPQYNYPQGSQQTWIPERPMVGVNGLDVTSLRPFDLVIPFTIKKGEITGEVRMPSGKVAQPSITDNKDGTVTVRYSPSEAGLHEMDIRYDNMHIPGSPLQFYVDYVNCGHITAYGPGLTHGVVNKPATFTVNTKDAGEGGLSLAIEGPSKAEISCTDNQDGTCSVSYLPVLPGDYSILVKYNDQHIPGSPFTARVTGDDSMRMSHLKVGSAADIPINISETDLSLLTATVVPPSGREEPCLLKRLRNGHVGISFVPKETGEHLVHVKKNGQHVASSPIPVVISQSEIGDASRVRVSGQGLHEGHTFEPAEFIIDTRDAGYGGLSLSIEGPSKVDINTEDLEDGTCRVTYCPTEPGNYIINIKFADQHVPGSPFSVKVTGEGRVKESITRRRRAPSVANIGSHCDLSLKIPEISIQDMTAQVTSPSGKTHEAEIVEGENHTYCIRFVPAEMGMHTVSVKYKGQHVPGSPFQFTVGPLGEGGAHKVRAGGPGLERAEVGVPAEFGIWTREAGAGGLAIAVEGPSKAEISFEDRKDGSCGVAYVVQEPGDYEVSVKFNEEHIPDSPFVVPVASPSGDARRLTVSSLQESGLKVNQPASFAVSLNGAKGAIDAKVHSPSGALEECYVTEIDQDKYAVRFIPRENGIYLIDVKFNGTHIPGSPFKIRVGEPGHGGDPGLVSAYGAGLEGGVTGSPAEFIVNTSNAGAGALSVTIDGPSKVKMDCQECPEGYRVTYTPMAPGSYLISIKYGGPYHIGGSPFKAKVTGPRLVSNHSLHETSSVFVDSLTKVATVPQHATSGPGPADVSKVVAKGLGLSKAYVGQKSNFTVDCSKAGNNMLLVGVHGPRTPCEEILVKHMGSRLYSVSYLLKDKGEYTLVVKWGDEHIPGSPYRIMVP

CN1CCC2(CC1)NCC(=O)N2Cc1ccccc1 [Compound C0105]
Decrease in amount of α7nAChR/Aβ42 complexes (α7nAChR/Aβ42 complexes; AD lymphocytes): approximately 50% | Response of α7nAChR/Aβ42 complexes (in words) (α7nAChR/Aβ42 complexes; YCI lymphocytes): essentially non-responsive | Effect on elevated α7nAChR-FLNA complexes in lymphocytes (in words) (α7nAChR-FLNA complexes): robustly normalized
